Results on twelve molecules are retold here after US9662327B2 (AGIOS PHARMACEUTICALS, INC, priority 2011, dated 2017).

Bounds are passed on as bounds.

Sequence of IDH1 R132H (O75874 whole entry R132H): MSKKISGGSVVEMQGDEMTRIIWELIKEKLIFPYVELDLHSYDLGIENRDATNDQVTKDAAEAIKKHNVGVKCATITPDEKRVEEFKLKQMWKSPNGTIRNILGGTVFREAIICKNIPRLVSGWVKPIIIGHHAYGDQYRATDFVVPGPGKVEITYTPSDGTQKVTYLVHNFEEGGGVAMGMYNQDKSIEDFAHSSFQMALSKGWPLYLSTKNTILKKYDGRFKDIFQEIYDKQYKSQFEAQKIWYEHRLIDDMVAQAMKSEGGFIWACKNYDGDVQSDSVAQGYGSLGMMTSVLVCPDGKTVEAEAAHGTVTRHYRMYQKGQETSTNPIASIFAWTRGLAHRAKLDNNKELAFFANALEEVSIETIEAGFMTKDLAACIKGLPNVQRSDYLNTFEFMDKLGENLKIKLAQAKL

The first test concerns the target IDH1 R132H (Homo sapiens (Human), UniProt O75874, R132H). Briefly: Assays for IDH1 R132H Inhibitors (NADPH/aKG, resazurin detection). As to conditions: IDH1 R132H enzyme, Table 2; read-out: IDHR132H Activity. It counts as biochemical. In outline:
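Substrate mix held 8 uM NADPH plus 2 mM aKG; buffer was 20 mM Tris pH 7.5 with 150 mM NaCl, 10 mM MgCl2, 0.03% BSA. After 50 min room-temperature reaction, NADPH remaining was detected with 30 μM resazurin mix over 5 min.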
As to `C[C@@H]1CN(c2nc(C3CCCCC3)c3c(c2C#N)CCOC3)CCN1C(=O)c1csc2ccccc12` [Compound 243, (R)-6-(4-(benzo[b]thiophene-3-carbonyl)-3-methylpiperazin-1-yl)-8-cyclohexyl-3,4-dihydro-1H-pyrano[3,4-c]pyridine-5-carbonitrile], the IC50 lay in the range of 1000 to 10000 nM.

In the case of `CC(C)[C@@H]1CN(c2nc(C3CC3)c3c(c2C#N)CC(C)(C)OC3)CCN1C(=O)c1cccnc1` [Compound 271], the IC50 was 1000 to 10000 nM.

Take `CC(C)[C@@H]1CN(c2nc(C3CC3)c3c(c2C#N)CC(C)(C)OC3)CCN1C(=O)Cn1ccc2ccccc21` [Compound 406, (R)-6-(4-(2-(1H-indol-1-yl)acetyl)-3-isopropylpiperazin-1-yl)-8-cyclopropyl-3,3-dimethyl-3,4-dihydro-1H-pyrano[3,4-c]pyridine-5-carbonitrile]: the IC50 was 1000 to 10000 nM.

In the case of `CC[C@@H]1CN(c2nc(C3CC3)c3c(c2C#N)CC(C)(C)OC3)CCN1C(=O)c1ccoc1C` [Compound 237, (R)-8-cyclopropyl-6-(3-ethyl-4-(2-methylfuran-3-carbonyl)piperazin-1-yl)-3,3-dimethyl-3,4-dihydro-1H-pyrano[3,4-c]pyridine-5-carbonitrile], the IC50 is less than 500 nM.

As for `C[C@@H]1CN(c2nc(C3CCCCC3)c3c(c2C#N)CCOC3)CCN1C(=O)CCl` [Compound 340, (R)-6-(4-(2-chloroacetyl)-3-methylpiperazin-1-yl)-8-cyclohexyl-3,4-dihydro-1H-pyrano[3,4-c]pyridine-5-carbonitrile], the IC50 was less than 500 nM.

On to `C[C@@H]1CN(c2nc(C3CCCCC3)c3c(c2C#N)CCOC3)CCN1C(=O)c1cnc2ccccn12` [Compound 227, (R)-8-cyclohexyl-6-(4-(imidazo[1,2-a]pyridine-3-carbonyl)-3-methylpiperazin-1-yl)-3,4-dihydro-1H-pyrano[3,4-c]pyridine-5-carbonitrile], for which the IC50 was 1000 to 10000 nM.

Regarding `Cc1occc1C(=O)N1CCN(c2nc(C(C)C)c3c(c2C#N)CCOC3)CC1` [Compound 113, 8-isopropyl-6-(4-(2-methylfuran-3-carbonyl)piperazin-1-yl)-3,4-dihydro-1H-pyrano[3,4-c]pyridine-5-carbonitrile], the IC50 fell in the range of 1000 to 10000 nM.

As to `CCOC(=O)C1CN(c2nc(C3CC3)c3c(c2C#N)CC(C)(C)OC3)CCN1C(=O)c1ccoc1` (stereo not drawn) [Compound 259, ethyl 4-(5-cyano-8-cyclopropyl-3,3-dimethyl-3,4-dihydro-1H-pyrano[3,4-c]pyridin-6-yl)-1-(furan-3-carbonyl)piperazine-2-carboxylate], the IC50 was in the range of 1000 to 10000 nM.

`COc1ccc(OC(=O)N2CCN(c3nc(C(C)C)c4c(c3C#N)CCOC4)CC2)cc1` [Compound 103, 4-methoxyphenyl 4-(5-cyano-8-isopropyl-3,4-dihydro-1H-pyrano[3,4-c]pyridin-6-yl)piperazine-1-carboxylate]: the IC50 is 1000 to 10000 nM.

Take `CC(C)[C@@H]1CN(c2nc(C3CC3)c3c(c2C#N)CC(C)(C)OC3)CCN1C(=O)CCl` [Compound 317, (R)-6-(4-(2-chloroacetyl)-3-isopropylpiperazin-1-yl)-8-cyclopropyl-3,3-dimethyl-3,4-dihydro-1H-pyrano[3,4-c]pyridine-5-carbonitrile]: the IC50 was less than 500 nM.

For the molecule `CC(C)c1nc(N2CCN(C(=O)c3ccco3)[C@H](c3ccccc3)C2)c(C#N)c2c1COC(C)(C)C2` [Compound 200, (R)-6-(4-(furan-2-carbonyl)-3-phenylpiperazin-1-yl)-8-isopropyl-3,3-dimethyl-3,4-dihydro-1H-pyrano[3,4-c]pyridine-5-carbonitrile], the IC50 lay within 1000 to 10000 nM.

Still in this test, the particulars now being: IDH1 R132H enzyme, Table 3; read-out: R132H IC50.
With `CC1(C)Cc2c(C#N)c(N3CCN(C(=O)CC4COC4)[C@H](C4CC4)C3)nc(C3CC3)c2CO1` [Compound 466, (R)-8-cyclopropyl-6-(3-cyclopropyl-4-(2-(oxetan-3-yl)acetyl)piperazin-1-yl)-3,3-dimethyl-3,4-dihydro-1H-pyrano[3,4-c]pyridine-5-carbonitrile], the IC50 is 500 to 1000 nM.
